Values of other authors as cited in patent publication EP2939710B1, “Active Mixtures” (Symrise AG, priority 2014, dated 2015).

Details: water (20° dH) at 20 °C, solid active agent

solubility in water: less than 5 g/L
Compound: Nc1nc2c(ncn2COCCO)c(=O)[nH]1 [Acyclovir, 2-Amino-1,9-dihydro-9-((2-hydroxyethoxy)methyl)-6H-Purin-6-one]
